Assay results published in PMC6063787 (Nature, 2018).

B1: saposin (scaffolding protein, 81 residues) (natural protein)
chain: SLPCDICKDVVTAAGDMLKDNATEEEILVYLEKTCDWLPKPNMSASCKEIVDSYLPVILDIIKGEMSRPGEVCSALNLCESLQ

Tests used:
[1] = target: T1, NfMCU (mitochondrial calcium uniporter ortholog) (Aspergillus fischeri, UniProt A1CWT6); test: […] flux block in proteoliposomes of purified NfMCU; format: cell-based
T1 sequence (A1CWT6 76-488): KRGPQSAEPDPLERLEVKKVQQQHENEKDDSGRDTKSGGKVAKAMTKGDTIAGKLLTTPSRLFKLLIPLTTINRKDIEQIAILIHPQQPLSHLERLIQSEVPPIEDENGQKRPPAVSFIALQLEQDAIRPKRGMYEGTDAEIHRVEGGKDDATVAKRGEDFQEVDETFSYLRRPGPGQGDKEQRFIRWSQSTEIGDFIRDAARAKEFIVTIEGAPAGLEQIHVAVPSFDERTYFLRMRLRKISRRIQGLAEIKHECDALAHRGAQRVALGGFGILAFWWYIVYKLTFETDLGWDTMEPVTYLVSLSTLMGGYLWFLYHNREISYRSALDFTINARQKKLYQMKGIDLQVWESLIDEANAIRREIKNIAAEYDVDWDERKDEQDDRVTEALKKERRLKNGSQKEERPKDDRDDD

cryo-EM structure = target: the molecule itself; test: cryo-EM structure

Row | Molecule | IC50 [1] | stoichiometry N (cryo-EM structure)
1 | [NH2][Ru-3]([NH2])([NH2])([NH3+])([O]C=O)[O][Ru-2]([NH3+])([NH3+])([NH3+])([NH3+])[O]C=O [Ru360] | 500 nM | 
2 | B1 |  | 6
